Experimental data from patent publication US9814672B2, “Echogenic vehicle for clinical delivery of plasminogen activator and other fibrin-binding therapeutics to thrombi” (priority 2007, dated 2017).

Tested on: whole porcine blood clots
Experiment: In vitro thrombolysis, percent clot mass loss
Details: 1 MHz CW, 2 W/cm^2, 2 min vs. no ultrasound
Protocol: Whole porcine blood clots were used to evaluate thrombolysis. Blood was obtained from non-heparinized Yucatan miniswine. The miniswine were 6-8 weeks old and weighed 28.5±6.5 lb. Baseline blood analysis data, including complete blood count, prothrombin time, activated partial thromboplastin time, D-dimer, and fibrinogen were obtained to ensure normal clotting parameters. Whole blood clots were made by aliquoting 1.5 ml fresh porcine blood into 1.3-cm inner diameter vacutainer tubes; the tubes were incubated in a 37° C. water bath for 3 h. The clots were then stored at 4° C. until use, which ensured complete clot maturation and retraction. This type of clot is fairly similar to physiologic venous clots. Most miniswine used in this study were slightly anemic (hematocrit of 27.8±3.0%). Only donors with values of <250 ng/ml for the D-dimer test, <15 s for prothrombin time, <18 s for activated partial thromboplastin time, and <300 mg/dl fibrinogen concentration were considered acceptable. The resulting clots were dark red, cylindrical, and weighed 0.47±0.11 g. All unused clots were discarded after 2 weeks.
Whole porcine blood clots were blotted gently and weighed using an analytical balance. […]
Porcine clots were treated with 1 MHz continuous wave (CW) ultrasound with an intensity of 2 W/cm^2, for 2 min (Sonitron 1000; Rich-Mar). The calculated peak negative acoustic pressure output was 0.12 MPa. […]

**Q.** “tPA: Recombinant tissue-plasminogen activator (Activase®, Genentech Inc.), used as the thrombolytic agent [reference compound]” was tested. Which “effect of ultrasound exposure on thrombolysis” value did it give?
**A.** no significant augmentation of thrombolysis
